Data on 20 compounds can be found in US20230143612A1 (Arbutus Biopharma Corporation, priority 2020, published 2023).

pIC50: −log10 of the molar value.

The target in the test is PD-L1 His protein / PD-1 Fc protein (Homo sapiens, UniProt Q9NZQ7). The test is described as follows: HTRF Assay (PD-1/PD-L1 interaction). The test is classed as binding. The note with it: PD-L1 His 6 nM, PD-1 Fc 6 nM. The gist of the method:
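HTRF: PD-L1 His (6 nM final), compound (3-fold dilutions, 20 μM to 0.001 μM final) and PD-1 Fc (6 nM final) preincubated 15 min at room temperature. Anti-human IgG-XL665 and anti-6HIS Tb cryptate (mixed at 6.7 nM and 0.35 nM) then added for 1 h at room temperature before reading.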
On the technique in general: Time-resolved FRET reads energy transfer from a long-lived donor to a nearby acceptor.

Chain of PD-L1 His protein / PD-1 Fc protein (Q9NZQ7 19-238 limits assumed): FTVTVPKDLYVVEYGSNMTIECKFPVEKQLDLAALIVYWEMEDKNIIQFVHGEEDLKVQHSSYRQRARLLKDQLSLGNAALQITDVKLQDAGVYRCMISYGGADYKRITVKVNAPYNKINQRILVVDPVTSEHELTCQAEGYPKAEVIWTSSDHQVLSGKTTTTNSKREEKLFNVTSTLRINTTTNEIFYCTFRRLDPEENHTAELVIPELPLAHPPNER

Consider `COc1nc(-c2cccc(-c3cccc(-c4ccn5c(=O)c(CNC[C@@H]6CCC(=O)N6)cnc5c4)c3Cl)c2Cl)ccc1C1(CN)CC1` [Example 283, (S)-8-(3′-(5-(1-(Aminomethyl)cyclopropyl)-6-methoxypyridin-2-yl)-2,2′-dichloro-[1,1′-biphenyl]-3-yl)-3-((((5-oxopyrrolidin-2-yl)methyl)amino)methyl)-4H-pyrido[1,2-a]pyrimidin-4-one], for which the pIC50 (in general, the IC50 on a negative log10 scale, so that one unit is a factor of ten) was 6.82. `COc1nc(-c2cccc(-c3cccc(-c4ccn5c(=O)c(CNC[C@H]6CNC(=O)C6)cnc5c4)c3Cl)c2Cl)ccc1CNC[C@@H]1CCC(=O)N1` [Example 284, 8-(2,2′-Dichloro-3′-(6-methoxy-5-(((((S)-5-oxopyrrolidin-2-yl)methyl)-amino)methyl)-pyridin-2-yl)-[1,1′-biphenyl]-3-yl)-3-(((((S)-5-oxopyrrolidin-3-yl)methyl)amino)methyl)-4H-pyrido[1,2-a]pyrimidin-4-one] showed a negative logarithm of the IC50 (pIC50) of 10.00.

`COc1nc(-c2cccc(-c3cccc(-c4cc(C)c5nc(CNC[C@@H]6CCC(=O)N6)cc(=O)n5c4)c3Cl)c2Cl)ccc1CNC[C@@H]1CCC(=O)N1` [Example 288, 7-(2,2′-Dichloro-3′-(6-methoxy-5-(((((S)-5-oxopyrrolidin-2-yl)methyl)amino)methyl)pyridin-2-yl)-[1,1′-biphenyl]-3-yl)-9-methyl-2-(((((S)-5-oxopyrrolidin-2-yl)methyl)amino)methyl)-4H-pyrido[1,2-a]pyrimidin-4-one]: the pIC50 is 7.25. Compound `COC(=O)C1CN(Cc2cnc3cc(-c4cccc(-c5cccc(-c6ccc(CN7CC(C(=O)OC)C7)c(OC)n6)c5Cl)c4Cl)ncc3c2)C1` [Example 289, Methyl 1-((6-(2,2′-dichloro-3′-(3-((3-(methoxycarbonyl)azetidin-1-yl)methyl)-1,6-naphthyridin-7-yl)-[1,1′-biphenyl]-3-yl)-2-methoxypyridin-3-yl)methyl)azetidine-3-carboxylate] gave a pIC50 of 8.05. The value for `COc1nc(-c2cccc(-c3cccc(-c4ccn5c(=O)c(C6=NCC(O)CN6)c(C)nc5c4)c3Cl)c2Cl)ccc1CNC[C@@H]1CCC(=O)N1` (stereo partly drawn) [Example 290, 8-(2,2′-dichloro-3′-(6-methoxy-5-(((((S)-5-oxopyrrolidin-2-yl)methyl)amino)methyl)pyridin-2-yl)-[1,1′-biphenyl]-3-yl)-3-(5-hydroxy-1,4,5,6-tetrahydropyrimidin-2-yl)-2-methyl-4H-pyrido[1,2-a]pyrimidin-4-one] was 9.40.

Compound `COC(=O)C1CN(Cc2cnc3cc(-c4cccc(-c5cccc(-c6ccc(CNC[C@@H]7CCC(=O)N7)c(OC)n6)c5Cl)c4Cl)cc(C)n3c2=O)C1` [Example 291, (S)-Methyl 1-((8-(2,2′-dichloro-3′-(6-methoxy-5-((((5-oxopyrrolidin-2-yl)methyl)amino)methyl)pyridin-2-yl)-[1,1′-biphenyl]-3-yl)-6-methyl-4-oxo-4H-pyrido[1,2-a]pyrimidin-3-yl)methyl)azetidine-3-carboxylate] had a pIC50 of 10.00. Turning to `CNC(=O)C[C@H](O)CNCc1cnc2cc(-c3cccc(-c4cccc(-c5ccc(CNC[C@@H]6CCC(=O)N6)c(OC)n5)c4Cl)c3Cl)ccn2c1=O` [Example 292, (3S)-4-[[8-[2-Chloro-3-[2-chloro-3-[6-methoxy-5-[[[(2S)-5-oxopyrrolidin-2-yl]methylamino]methyl]-2-pyridyl]phenyl]phenyl]-4-oxo-pyrido[1,2-a]pyrimidin-3-yl]methylamino]-3-hydroxy-N-methyl-butanamide], the pIC50 was 10.00.

Compound `CNC(=O)C[C@H](O)CNCc1cnc2cc(-c3cccc(-c4cccc(-c5cc(F)c(CNC[C@@H]6CCC(=O)N6)c(OC)n5)c4Cl)c3Cl)ccn2c1=O` [Example 293, (3S)-4-[[8-[2-Chloro-3-[2-chloro-3-[4-fluoro-6-methoxy-5-[[[(2S)-5-oxopyrrolidin-2-yl]methylamino]methyl]-2-pyridyl]phenyl]phenyl]-4-oxo-pyrido[1,2-a]pyrimidin-3-yl]methylamino]-3-hydroxy-N-methyl-butanamide] had a pIC50 of 10.00. Take `COC(=O)CNCc1cnc2cc(-c3cccc(-c4cccc(-c5ccc(CNC[C@@H]6CCC(=O)N6)c(OC)n5)c4Cl)c3Cl)cc(C)n2c1=O` [Example 294, (S)-Methyl 2-(((8-(2,2′-dichloro-3′-(6-methoxy-5-((((5-oxopyrrolidin-2-yl)methyl)amino)methyl)pyridin-2-yl)-[1,1′-biphenyl]-3-yl)-6-methyl-4-oxo-4H-pyrido[1,2-a]pyrimidin-3-yl)methyl)amino)acetate]: the pIC50 is 9.40. The value for `COC(=O)[C@H]1CCN(Cc2cnc3cc(-c4cccc(-c5cccc(-c6ccc(CNC[C@@H]7CCC(=O)N7)c(OC)n6)c5Cl)c4Cl)cc(C)n3c2=O)C1` [Example 295, (S)-Methyl 1-((8-(2,2′-dichloro-3′-(6-methoxy-5-(((((S)-5-oxopyrrolidin-2-yl)methyl)amino)methyl)pyridin-2-yl)-[1,1′-biphenyl]-3-yl)-6-methyl-4-oxo-4H-pyrido[1,2-a]pyrimidin-3-yl)methyl)pyrrolidine-3-carboxylate] was 10.00; that for `COC(=O)C1CN(Cc2c(C)nc3cc(-c4cccc(-c5cccc(-c6ccc(CNC[C@@H]7CCC(=O)N7)c(OC)n6)c5Cl)c4Cl)ccn3c2=O)C1` [Example 296, (S)-Methyl 1-((8-(2,2′-dichloro-3′-(6-methoxy-5-((((5-oxopyrrolidin-2-yl)methyl)amino)methyl)pyridin-2-yl)-[1,1′-biphenyl]-3-yl)-2-methyl-4-oxo-4H-pyrido[1,2-a]pyrimidin-3-yl)methyl)azetidine-3-carboxylate] was 9.30; that for `COc1nc(-c2cccc(-c3cccc(-c4ccn5c(=O)c(CNCC(F)F)cnc5c4)c3Cl)c2Cl)ccc1CNC[C@@H]1CCC(=O)N1` [Example 297, 8-[2-Chloro-3-[2-chloro-3-[6-methoxy-5-[[[(2S)-5-oxopyrrolidin-2-yl]methylamino]methyl]-2-pyridyl]phenyl]phenyl]-3-[(2,2-difluoroethylamino)methyl]pyrido[1,2-a]pyrimidin-4-one] was 6.49.

Regarding `COc1nc(-c2cccc(-c3cccc(-c4ccn5c(=O)c(CNC[C@H](C)N)cnc5c4)c3Cl)c2Cl)ccc1CNC[C@@H]1CCC(=O)N1` [Example 298, 3-[[[(2S)-2-Aminopropyl]amino]methyl]-8-[2-chloro-3-[2-chloro-3-[6-methoxy-5-[[[(2S)-5-oxopyrrolidin-2-yl]methylamino]methyl]-2-pyridyl]phenyl]phenyl]pyrido[1,2-a]pyrimidin-4-one], the pIC50 is 7.60.

The compound `COC(=O)N(C)CCN(C)Cc1ccc(-c2cccc(-c3cccc(-c4ccn5c(=O)c(CN(C)CCN(C)C(=O)OC)cnc5c4)c3Cl)c2Cl)nc1OC` [Example 299, methyl (2-(((8-(2,2′-dichloro-3′-(6-methoxy-5-(((2-((methoxycarbonyl)(methyl)amino)ethyl)(methyl)amino)methyl)pyridin-2-yl)-[1,1′-biphenyl]-3-yl)-4-oxo-4H-pyrido[1,2-a]pyrimidin-3-yl)methyl)(methyl)amino)ethyl)(methyl)carbamate] showed a pIC50 of 5.52. The value for `COc1nc(-c2cccc(-c3cccc(-c4ccn5c(=O)c(CNCC(F)(F)CO)cnc5c4)c3Cl)c2Cl)ccc1CNC[C@@H]1CCC(=O)N1` [Example 300, (S)-8-(2,2′-Dichloro-3′-(6-methoxy-5-((((5-oxopyrrolidin-2-yl)methyl)amino)methyl)pyridin-2-yl)-[1,1′-biphenyl]-3-yl)-3-(((2,2-difluoro-3-hydroxypropyl)amino)methyl)-4H-pyrido[1,2-a]pyrimidin-4-one] was 6.89. Turning to `COc1nc(-c2cccc(-c3cccc(-c4ccn5c(=O)c(CNCC6(CO)CC6)cnc5c4)c3Cl)c2Cl)ccc1CNC[C@@H]1CCC(=O)N1` [Example 301, (S)-8-(2,2′-Dichloro-3′-(6-methoxy-5-((((5-oxopyrrolidin-2-yl)methyl)amino)methyl)pyridin-2-yl)-[1,1′-biphenyl]-3-yl)-3-((((1-(hydroxymethyl)cyclopropyl)methyl)amino)methyl)-4H-pyrido[1,2-a]pyrimidin-4-one], the pIC50 is 7.40.

For the compound `COc1nc(-c2cccc(-c3cccc(-c4ccn5c(=O)c(CNC[C@H](C)OC)cnc5c4)c3Cl)c2Cl)ccc1CNC[C@@H]1CCC(=O)N1` [Example 302, 8-[2-Chloro-3-[2-chloro-3-[6-methoxy-5-[[[(2S)-5-oxopyrrolidin-2-yl]methylamino]methyl]-2-pyridyl]phenyl]phenyl]-3-[[[(2S)-2-methoxypropyl]amino]methyl]pyrido[1,2-a]pyrimidin-4-one], the pIC50 was 7.46.

As to `COc1nc(-c2cccc(-c3cccc(-c4ccn5c(=O)c(CNCC(F)(F)F)cnc5c4)c3Cl)c2Cl)ccc1CNC[C@@H]1CCC(=O)N1` [Example 303, 8-[2-Chloro-3-[2-chloro-3-[6-methoxy-5-[[[(2S)-5-oxopyrrolidin-2-yl]methylamino]methyl]-2-pyridyl]phenyl]phenyl]-3-[(2,2,2-trifluoroethylamino)methyl]pyrido[1,2-a]pyrimidin-4-one], the pIC50 is 9.40. The value for `COC(=O)C1CN(Cc2cnc3cc(-c4cccc(-c5cccc(-c6ccc(CNC[C@@H]7CCC(=O)N7)c(OC)n6)c5Cl)c4Cl)ncc3c2)C1` [Example 304, (S)-Methyl 1-((7-(2,2′-dichloro-3′-(6-methoxy-5-((((5-oxopyrrolidin-2-yl)methyl)amino)methyl)pyridin-2-yl)-[1,1′-biphenyl]-3-yl)-1,6-naphthyridin-3-yl)methyl)azetidine-3-carboxylate] was 9.70. `COC(=O)CNCc1cnc2cc(-c3cccc(-c4cccc(-c5ccc(CNC[C@@H]6CCC(=O)N6)c(OC)n5)c4Cl)c3Cl)ncc2c1` [Example 305, (S)-Methyl 2-(((7-(2,2′-dichloro-3′-(6-methoxy-5-((((5-oxopyrrolidin-2-yl)methyl)amino)methyl)pyridin-2-yl)-[1,1′-biphenyl]-3-yl)-1,6-naphthyridin-3-yl)methyl)amino)acetate] showed a pIC50 of 9.40.
